Key:
Format in all cases: cell-based
hα9α10 nAChR = hα9α10 nAChR (Homo sapiens, UniProt Q9GZZ6+Q9UGM1)
hα3β2 nAChR = hα3β2 nAChR (Homo sapiens, UniProt P17787+P32297)
hα3β4 nAChR = hα3β4 nAChR (Homo sapiens, UniProt P30926+P32297)
Chain of hα3β4 nAChR (P32297 32-505): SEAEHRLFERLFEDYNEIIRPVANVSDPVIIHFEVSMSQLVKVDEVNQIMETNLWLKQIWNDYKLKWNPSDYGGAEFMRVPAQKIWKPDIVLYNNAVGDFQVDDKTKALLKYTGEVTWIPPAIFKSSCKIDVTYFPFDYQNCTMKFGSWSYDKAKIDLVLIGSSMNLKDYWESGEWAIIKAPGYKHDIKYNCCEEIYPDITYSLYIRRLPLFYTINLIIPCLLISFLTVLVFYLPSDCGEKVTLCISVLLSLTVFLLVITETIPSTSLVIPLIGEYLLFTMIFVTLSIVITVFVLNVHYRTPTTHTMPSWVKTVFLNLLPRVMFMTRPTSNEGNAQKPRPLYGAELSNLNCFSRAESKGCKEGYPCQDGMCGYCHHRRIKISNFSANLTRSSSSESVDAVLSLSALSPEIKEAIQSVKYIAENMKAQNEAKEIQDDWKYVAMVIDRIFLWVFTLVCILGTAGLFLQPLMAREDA
Chain of hα3β4 nAChR (P30926 22-498): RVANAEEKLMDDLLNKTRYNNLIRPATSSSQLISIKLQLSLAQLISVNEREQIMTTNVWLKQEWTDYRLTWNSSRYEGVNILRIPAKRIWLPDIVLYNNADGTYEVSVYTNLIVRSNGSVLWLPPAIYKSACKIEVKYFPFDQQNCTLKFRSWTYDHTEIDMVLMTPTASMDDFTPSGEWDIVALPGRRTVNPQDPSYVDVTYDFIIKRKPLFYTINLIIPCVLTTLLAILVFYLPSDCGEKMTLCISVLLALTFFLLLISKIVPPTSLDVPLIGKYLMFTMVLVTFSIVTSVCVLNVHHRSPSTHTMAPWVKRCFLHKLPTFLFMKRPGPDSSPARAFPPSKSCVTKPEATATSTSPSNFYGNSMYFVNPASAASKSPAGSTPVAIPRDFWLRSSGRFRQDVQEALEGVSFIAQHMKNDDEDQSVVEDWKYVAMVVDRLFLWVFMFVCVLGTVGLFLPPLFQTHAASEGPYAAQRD

Chain of hα3β2 nAChR (P32297 32-505): as the sequence (P32297 32-505) above
Chain of hα3β2 nAChR (P17787 26-502): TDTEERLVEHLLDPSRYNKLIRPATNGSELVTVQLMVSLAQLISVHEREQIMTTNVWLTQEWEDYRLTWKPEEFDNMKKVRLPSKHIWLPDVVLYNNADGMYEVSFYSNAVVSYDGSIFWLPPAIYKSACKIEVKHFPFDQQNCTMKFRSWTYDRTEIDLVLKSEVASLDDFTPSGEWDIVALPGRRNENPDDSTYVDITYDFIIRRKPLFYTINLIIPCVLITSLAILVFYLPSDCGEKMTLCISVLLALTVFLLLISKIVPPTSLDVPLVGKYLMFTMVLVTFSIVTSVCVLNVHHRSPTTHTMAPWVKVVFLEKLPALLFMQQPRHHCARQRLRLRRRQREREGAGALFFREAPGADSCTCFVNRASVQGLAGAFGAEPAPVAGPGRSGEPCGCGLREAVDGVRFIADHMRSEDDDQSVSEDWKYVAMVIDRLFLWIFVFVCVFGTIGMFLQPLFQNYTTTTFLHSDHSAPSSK
Chain of hα9α10 nAChR (Q9UGM1 26-479 limits assumed): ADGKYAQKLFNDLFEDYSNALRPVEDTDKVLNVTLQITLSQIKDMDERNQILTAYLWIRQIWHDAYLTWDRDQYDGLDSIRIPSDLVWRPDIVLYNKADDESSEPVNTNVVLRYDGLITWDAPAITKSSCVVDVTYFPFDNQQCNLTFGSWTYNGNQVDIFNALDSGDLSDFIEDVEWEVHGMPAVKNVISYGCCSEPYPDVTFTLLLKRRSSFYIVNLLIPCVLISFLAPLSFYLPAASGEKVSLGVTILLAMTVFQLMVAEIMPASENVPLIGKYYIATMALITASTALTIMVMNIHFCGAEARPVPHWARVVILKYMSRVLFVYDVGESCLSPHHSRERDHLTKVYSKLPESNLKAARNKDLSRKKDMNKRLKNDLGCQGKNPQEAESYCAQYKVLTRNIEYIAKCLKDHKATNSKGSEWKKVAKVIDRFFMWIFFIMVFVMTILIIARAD
Chain of hα9α10 nAChR (Q9GZZ6 25-450): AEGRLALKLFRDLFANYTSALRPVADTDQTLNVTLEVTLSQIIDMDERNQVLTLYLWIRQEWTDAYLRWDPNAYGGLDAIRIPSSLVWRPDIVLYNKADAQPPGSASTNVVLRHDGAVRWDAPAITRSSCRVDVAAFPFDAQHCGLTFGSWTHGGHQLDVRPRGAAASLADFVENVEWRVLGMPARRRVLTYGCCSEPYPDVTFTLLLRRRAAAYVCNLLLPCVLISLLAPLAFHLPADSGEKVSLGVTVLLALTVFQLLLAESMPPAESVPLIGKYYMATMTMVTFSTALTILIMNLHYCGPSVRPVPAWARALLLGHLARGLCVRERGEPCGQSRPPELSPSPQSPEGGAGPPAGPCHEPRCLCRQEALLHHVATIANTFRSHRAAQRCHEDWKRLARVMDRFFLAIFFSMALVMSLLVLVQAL

α-conotoxin Vc1.1
Inhibition of ACh-evoked current at hα9α10 nAChR (hα9α10 nAChR): complete inhibition | Inhibition of ACh-evoked current at hα3β2 nAChR (hα3β2 nAChR): complete inhibition

α-conotoxin BuIA
Inhibition of the ACh-evoked current amplitude at hα3β2 nAChR (hα3β2 nAChR): > 90% | Inhibition of the ACh-evoked current amplitude at hα3β4 nAChR (hα3β4 nAChR): > 90%

From PMC6044955 (ACS Omega, 2017)
